In EP0677039B1, “CYCLOBUTANE DERIVATIVES AS INHIBITORS OF […] SYNTHETASE AND PROTEIN […]” (Abbott Laboratories, priority 1993, dated 1995) one finds inhibition data, which are given here for 22 compounds.

In one test the target is T1, Rat liver microsomal squalene synthetase (Rattus norvegicus, UniProt Q02769).
T1 construct: Rat liver microsome, the source of enzyme; from tissue; host or cells: rat liver microsomes
T1 sequence (Q02769 1-416): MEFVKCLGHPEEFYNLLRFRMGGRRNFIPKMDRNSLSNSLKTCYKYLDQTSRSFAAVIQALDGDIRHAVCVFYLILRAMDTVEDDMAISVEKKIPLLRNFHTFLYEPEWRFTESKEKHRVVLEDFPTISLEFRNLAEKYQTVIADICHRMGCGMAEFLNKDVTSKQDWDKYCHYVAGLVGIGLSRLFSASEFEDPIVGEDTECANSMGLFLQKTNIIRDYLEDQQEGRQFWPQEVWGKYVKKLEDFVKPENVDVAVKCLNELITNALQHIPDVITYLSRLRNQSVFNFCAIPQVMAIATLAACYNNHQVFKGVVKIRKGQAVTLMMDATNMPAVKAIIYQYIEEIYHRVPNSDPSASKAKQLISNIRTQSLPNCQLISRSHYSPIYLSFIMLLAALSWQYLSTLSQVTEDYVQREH
Kind of test: In vitro inhibition of squalene synthetase. It counts as biochemical. Conditions: 10 µM test compound; rat liver microsomes, labelled farnesyl pyrophosphate, 10 minutes at 37 °C; compared to controls with no test compound. How it is done: In vitro inhibition of squalene synthetase may be measured by the following procedure. Rat liver microsomal squalene synthetase activity was measured using farnesyl pyrophosphate as a substrate and quantitating squalene synthesis using labelled farnesyl pyrophosphate and counting the squalene formed. Rat liver microsome, the source of enzyme, was prepared according to the method of Gillies, P. J., et al., Exp. Molc. Pathol. 44: 329-339 (1986), a modification of the procedure of Erickson, S. K., and Cooper, A. D., Metabolism, 29: 991-996 (1980). […] Oxygen was excluded from the closed incubation tube by degassing with nitrogen. The reaction was terminated by the addition of ethanolic KOH and after degassing with N2, the microsomal membranes were solubilized by heating at 60 °C for 30 minutes. The squalene was extracted into hexane, and the squalene was separated from all other radioactive molecules by passage over an activated alumina column. […] The per cent inhibition at a dose of 10 µM (or 1 µM) compared to controls with no test compound was determined. […]
For the compound `CCCN(Cc1ccc(Oc2ccccc2)cc1)C(=O)[C@@H]1[C@H](C(N)=O)[C@@H](C(=O)O)[C@H]1C(=O)N(CCC)Cc1ccc(Oc2ccccc2)cc1` (relative stereo) [Example 99B, (1α,2β,3β,4α)-3-(Amino)carbonyl-1,2-di[N-propyl-N-(4-phenoxybenzyl)aminocarbonyl]cyclobutane-4-carboxylic Acid], the inhibition at 10 µM is 80%.

In the case of `CCCN(Cc1ccc(Oc2cccc(C)c2)cc1)C(=O)C1C(C(=O)O)C(C(=O)O)C1C(=O)N(CCC)Cc1ccc(Oc2cccc(C)c2)cc1` (stereo not drawn) [Example 87B, (1α,2β,3β,4α)-1,2-Di{N-propyl-[4-(3'-methyl)phenoxybenzyl]aminocarbonyl}cyclobutane-3,4-dicarboxylic acid], the inhibition at 10 µM turned out to be 72%.

`CCCN(Cc1ccc(Oc2ccccc2)cc1)C(=O)C1C(CO)C(C(=O)O)C1C(=O)N(CCC)Cc1ccc(Oc2ccccc2)cc1` (stereo not drawn) [Example 70B, (1α,2β,3β,4α)-1,2-Di[N-propyl-N-(4-phenoxybenzyl)aminocarbonyl]-4-hydroxymethyl-cyclobutane-3-carboxylic acid] had an inhibition at 10 µM of 80%.

In turn, `CCCN(Cc1ccc(Oc2cccc3ccccc23)cc1)C(=O)C1C(C(=O)O)C(C(=O)O)C1C(=O)N(CCC)Cc1ccc(Oc2cccc3ccccc23)cc1` (stereo not drawn) [Example 91, (1α,2β,3β,4α)-1,2-Di[N-propyl-N-(4-naphth-1-yloxybenzyl)aminocarbonyl]cyclobutane-3,4-dicarboxylic acid] registered an inhibition at 10 µM of 62%.

The compound `COc1ccc(CCN(Cc2ccc(Oc3ccccc3)cc2)C(=O)C2C(C(=O)O)C(C(=O)O)C2C(=O)N(CCc2ccc(OC)c(OC)c2)Cc2ccc(Oc3ccccc3)cc2)cc1OC` (stereo not drawn) [Example 55, (1α,2β,3β,4α)-1,2-Di[N-(4-phenoxybenzyl)-N-(3,4-dimethoxyphenethyl)aminocarbonyl]cyclobutane-3,4-dicarboxylic acid] showed an inhibition at 10 µM of 78%.

In turn, `COC(=O)CN(Cc1ccc(Oc2ccccc2)cc1)C(=O)[C@H]1[C@@H](C(=O)O)[C@H](C(=O)O)[C@@H]1C(=O)N(CC(=O)OC)Cc1ccc(Oc2ccccc2)cc1` [Example 59, (1α,2β,3β,4α)-1,2-Di[N-(4-phenoxybenzyl)-N-(methoxycarbonylmethyl)aminocarbonyl]cyclobutane-3,4-dicarboxylic acid] displayed an inhibition at 10 µM of 50%.

On to `CCCN(Cc1ccc(Oc2ccccc2)cc1)C(=O)[C@H]1[C@@H](C(=O)O)[C@H](C(=O)O)[C@@H]1C(=O)NCc1ccc(Oc2ccccc2)cc1` [Example 64D, (1α,2β,3β,4α)-1-[N-Propyl-N-(4-phenoxybenzyl)aminocarbonyl]-2-[N-(4-phenoxybenzyl)aminocarbonyl]cyclobutane-3,4-dicarboxylic acid], for which at 10 µM the inhibition was 45%.

In the case of `CCCN(Cc1ccc(OC2CCCCC2)cc1)C(=O)[C@H]1[C@@H](C(=O)O)[C@H](C(=O)O)[C@@H]1C(=O)N(CCC)Cc1ccc(OC2CCCCC2)cc1` [Example 61B, (1α,2β,3β,4α)-1,2-Di[N-propyl-N-(4-cyclohexyloxybenzyl)aminocarbonyl]cyclobutane-3,4-dicarboxylic acid], 10 µM produced 43% inhibition.

`CCCN(Cc1ccc(Oc2ccc(C)cc2)cc1)C(=O)C1C(C(=O)O)C(C(=O)O)C1C(=O)N(CCC)Cc1ccc(Oc2ccc(C)cc2)cc1` (stereo not drawn) [Example 90, (1α,2β,3β,4α)-1,2-Di[N-propyl-N-(4-(4-methyl-1-phenoxy)benzyl)aminocarbonyl]cyclobutane-3,4-dicarboxylic acid]: 10 µM produced 53% inhibition.

As for `CCCN(Cc1ccc(Oc2ccccc2)cc1)C(=O)[C@@H]1[C@H](C(=O)O)[C@@H](NS(=O)(=O)C(F)(F)F)[C@H]1C(=O)N(CCC)Cc1ccc(Oc2ccccc2)cc1` (relative stereo) [Example 100C, (1α,2β,3β,4α)-1,2-Di[N-propyl-N-(4-phenoxybenzyl)aminocarbonyl]-3-[(trifluoromethanesulfonyl)amino]cyclobutane-4-carboxylic Acid], the inhibition at 10 µM came to 84%.

Compound `O=C(O)[C@H]1[C@H](C(=O)O)[C@H](C(=O)N(Cc2ccccc2)Cc2ccc(Oc3ccccc3)cc2)[C@H]1C(=O)N(Cc1ccccc1)Cc1ccc(Oc2ccccc2)cc1` [Example 15, (1α,2β,3β,4α)-1,2-Di[N-benzyl-N-(4-phenoxybenzyl)aminocarbonyl]cyclobutane-3,4-dicarboxylic acid] gave an inhibition at 10 µM of 99%.

The compound `CCCN(Cc1ccc(Oc2ccccc2)cc1)C(=O)C1C(C(=O)O)C(C(=O)NCC(=O)O)C1C(=O)N(CCC)Cc1ccc(Oc2ccccc2)cc1` (stereo not drawn) [Example 106, (1α,2β,3β,4α)-1,2-Di[N-propyl-N-(4-phenoxybenzyl)aminocarbonyl]cyclobutane-3-4-dicarboxylic acid mono-Glycine amide] yielded an inhibition at 10 µM of 92%.

Turning to `CCCN(Cc1ccc(Oc2ccccc2)cc1)C(=O)[C@H]1[C@@H](C(=O)O)[C@H](C(=O)O)[C@@H]1C(=O)N(C)CC/C=C(\C)CCC=C(C)C` [Example 62B, (1α,2β,3β,4α)-1-[N-Propyl-N-(4-phenoxybenzyl)aminocarbonyl]-2-[N-methyl-N-(homogeranyl)aminocarbonyl]cyclobutane-3,4-dicarboxylic acid], the inhibition at 10 µM was 83%.

As to `CN(Cc1ccc(OCc2ccccc2)cc1)C(=O)[C@H]1[C@@H](C(=O)O)[C@H](C(=O)O)[C@@H]1C(=O)N(C)Cc1ccc(OCc2ccccc2)cc1` [Example 14, (1α,2β,3β,4α)-1,2-Di(N-methyl-N-(4-benzyloxybenzyl)aminocarbonyl]cyclobutane-3,4-dicarboxylic acid], testing at 10 µM gave an inhibition of 31%.

`CCCN(Cc1ccc(Cn2cccc2)cc1)C(=O)C1C(C(=O)O)C(C(=O)O)C1C(=O)N(CCC)Cc1ccc(Cn2cccc2)cc1` (stereo not drawn) [Example 86D, (1α,2β,3β,4α)-1,2-Di[N-propyl-N-(4,(pyrrol-1-ylmethyl)benzyl)aminocarbonyl]cyclobutane-3,4-dicarboxylic acid] had an inhibition at 10 µM of 86%.

In the case of `CCCN(C(=O)[C@H]1[C@@H](C(=O)O)[C@H](C(=O)O)[C@@H]1C(=O)N(CCC)c1ccc(Nc2ccccc2)cc1)c1ccc(Nc2ccccc2)cc1` [Example 66C, (1α,2β,3β,4α)-1,2-Di[N-propyl-N-(4-phenylaminophenyl)aminocarbonyl]cyclobutane-3,4-dicarboxylic acid], the inhibition at 10 µM is 33%.

Staying with this test, now noted: values marked * in Table 1: 1 µM test compound; rat liver microsomes, labelled farnesyl pyrophosphate, 10 minutes at 37 °C.
As for `CCCN(Cc1ccc(Oc2ccccc2)cc1)C(=O)C1C(C(=O)O)C(C(=O)N(C)CC(=O)O)C1C(=O)N(CCC)Cc1ccc(Oc2ccccc2)cc1` (stereo not drawn) [Example 108, (1α,2β,3β,4α)-1,2-Di[N-propyl-N-(4-phenoxybenzyl)aminocarbonyl]cyclobutane-3,4-dicarboxylic acid mono-Sarcosine amide], the inhibition at 1 µM turned out to be 59%.

In turn, `O=C(O)C1C(C(=O)O)C(C(=O)N(Cc2ccc(Oc3ccccc3)cc2)C2CCC2)C1C(=O)N(Cc1ccc(Oc2ccccc2)cc1)C1CCC1` (stereo not drawn) [Example 48, (1α,2β,3β,4α)-1,2-Di[N-cyclobutyl-N-(4-phenoxybenzyl)aminocarbonyl]cyclobutane-3,4-dicarboxylic acid] returned an inhibition at 1 µM of 79%.

Regarding `CCCCC(NC(=O)[C@@H]1[C@@H](C(=O)O)[C@@H](C(=O)N(CCC)Cc2ccc(Oc3ccccc3)cc2)[C@@H]1C(=O)N(CCC)Cc1ccc(Oc2ccccc2)cc1)C(=O)O` (single isomer, unassigned) [Example 104A, (1α,2β,3β,4α)-1,2-Di[N-propyl-N-(4-phenoxybenzyl)aminocarbonyl]cyclobutane-3,4-dicarboxylic acid Mono-Norleucine Amide], at 1 µM the inhibition was 70%.

The compound `C=CCN(Cc1ccc(Oc2ccccc2)cc1)C(=O)[C@H]1[C@@H](C(=O)O)[C@H](C(=O)O)[C@@H]1C(=O)N(CC=C)Cc1ccc(Oc2ccccc2)cc1` [Example 29, (1α,2β,3β,4α)-1,2-Di[N-allyl-N-(4-phenoxybenzyl)aminocarbonyl]cyclobutane-3,4-dicarboxylic acid] returned an inhibition at 1 µM of 72%.

Consider `O=C(O)CC1C(CC(=O)O)C(C(=O)N(Cc2ccccc2)Cc2ccc(Oc3ccccc3)cc2)C1C(=O)N(Cc1ccccc1)Cc1ccc(Oc2ccccc2)cc1` (stereo not drawn) [Example 128F, (1α,2β,3β,4α)-1,2-Di{N-benzyl-N-[(4-phenoxy)benzyl]aminocarbonyl)cyclobutane-3,4-diacetic acid], for which the inhibition at 1 µM turned out to be 80%.

Turning to `O=C(O)C1C(C(=O)O)C(C(=O)N(Cc2ccc(Oc3ccccc3)cc2)Cc2cccs2)C1C(=O)N(Cc1ccc(Oc2ccccc2)cc1)Cc1cccs1` (stereo not drawn) [Example 45, (1α,2β,3β,4α)-1,2-Di[N-(thien-2-ylmethyl)-N-(4-phenoxybenzyl)aminocarbonyl]cyclobutane-3,4-dicarboxylic acid], the inhibition at 1 µM was found to be 50%.
